Results reported in US6444615B1, “Herbicidal imidazolidinetrione and thioxo-imidazolidinediones” (Dow AgroSciences LLC, priority 2000, dated 2002).

Columns and labels:
[1] = system: Nutsedge, (yellow) (Cyperus esculentus); test: Herbicidal pre-emergence test, Nutsedge (yellow); assay type: in vivo; conditions: 1200 g/ha, scale of 0-100, 0 no activity, 100 total control, about two or four weeks after application
Protocol: (§1) Listed below, a typical planting design for the test, consisting of four monocot weeds, four dicot weeds and one sedge weed. [table] For each compound, evaluation tests were carried out according to the following procedures: For preemergence tests, immediately after planting, the test compound was sprayed directly onto the soil surface. The flats or pots were placed in the greenhouse and then watered. For postemergence tests, seeds were allowed to germinate and grow for 10 to 21 days before application. The test plants were selected for uniformity, size and stage of development. The test plants were then treated with the test compound, returned to the greenhouse and watered. Untreated plants were used as a comparison. The compound to be evaluated was dissolved in an appropriate solvent, usually acetone, or a formulation of the evaluated compounds as described above, was added to the water, and sprayed over the flats or pots using a carrier volume equivalent to 187 or 468 liters per hectare to give a rate of application in grams per hectare (g/ha). About two or four weeks after application of the test compounds, the state of the plant was observed. Each species was evaluated on a scale of 0-100 in which 0 equals no activity and 100 equals total control.

[2] = system: Hairy Beggarticks (Bidens pilosa); test: Herbicidal post-emergence test, Hairy Beggarticks; assay type: in vivo; conditions: 1200 g/ha, scale of 0-100, 0 no activity, 100 total control, about two or four weeks after application
Protocol: as §1

[3] = system: Barnyardgrass (Echinochloa crusgalli); test: Herbicidal pre-emergence test, Barnyardgrass; assay type: in vivo; conditions: 1200 g/ha, scale of 0-100, 0 no activity, 100 total control, about two or four weeks after application
Protocol: as §1

[4] = system: Crabgrass (large) (Digitaria sanguinalis); test: Herbicidal post-emergence test, Crabgrass (large); assay type: in vivo; conditions: 1200 g/ha, scale of 0-100, 0 no activity, 100 total control, about two or four weeks after application
Protocol: as §1

[5] = system: Hairy Beggarticks (Bidens pilosa); test: Herbicidal pre-emergence test, Hairy Beggarticks; assay type: in vivo; conditions: 1200 g/ha, scale of 0-100, 0 no activity, 100 total control, about two or four weeks after application
Protocol: as §1

[6] = system: Nightshade, (black) (Solanum nigrum); test: Herbicidal pre-emergence test, Nightshade (black); assay type: in vivo; conditions: 1200 g/ha, scale of 0-100, 0 no activity, 100 total control, about two or four weeks after application
Protocol: as §1

[7] = system: Perennial Ryegrass (Lolium perenne); test: Herbicidal pre-emergence test, Perennial Ryegrass; assay type: in vivo; conditions: 1200 g/ha, scale of 0-100, 0 no activity, 100 total control, about two or four weeks after application
Protocol: as §1

[8] = system: Foxtail, (green) (Setaria viridis); test: Herbicidal pre-emergence test, Foxtail (green); assay type: in vivo; conditions: 1200 g/ha, scale of 0-100, 0 no activity, 100 total control, about two or four weeks after application
Protocol: as §1

[9] = system: Nightshade, (black) (Solanum nigrum); test: Herbicidal post-emergence test, Nightshade (black); assay type: in vivo; conditions: 1200 g/ha, scale of 0-100, 0 no activity, 100 total control, about two or four weeks after application
Protocol: as §1

[10] = system: Perennial Ryegrass (Lolium perenne); test: Herbicidal post-emergence test, Perennial Ryegrass; assay type: in vivo; conditions: 1200 g/ha, scale of 0-100, 0 no activity, 100 total control, about two or four weeks after application
Protocol: as §1

[11] = system: Crabgrass (large) (Digitaria sanguinalis); test: Herbicidal pre-emergence test, Crabgrass (large); assay type: in vivo; conditions: 1200 g/ha, scale of 0-100, 0 no activity, 100 total control, about two or four weeks after application
Protocol: as §1

[12] = system: Nutsedge, (yellow) (Cyperus esculentus); test: Herbicidal post-emergence test, Nutsedge (yellow); assay type: in vivo; conditions: 1200 g/ha, scale of 0-100, 0 no activity, 100 total control, about two or four weeks after application
Protocol: as §1

[13] = system: Smartweed, (pale) (Polygonum lapathifolium); test: Herbicidal post-emergence test, Smartweed (pale); assay type: in vivo; conditions: 1200 g/ha, scale of 0-100, 0 no activity, 100 total control, about two or four weeks after application
Protocol: as §1

[14] = system: Smartweed, (pale) (Polygonum lapathifolium); test: Herbicidal pre-emergence test, Smartweed (pale); assay type: in vivo; conditions: 1200 g/ha, scale of 0-100, 0 no activity, 100 total control, about two or four weeks after application
Protocol: as §1

[15] = system: Barnyardgrass (Echinochloa crusgalli); test: Herbicidal post-emergence test, Barnyardgrass; assay type: in vivo; conditions: 1200 g/ha, scale of 0-100, 0 no activity, 100 total control, about two or four weeks after application
Protocol: as §1

[16] = system: Velvetleaf (Abutilon theophrasti); test: Herbicidal pre-emergence test, Velvetleaf; assay type: in vivo; conditions: 1200 g/ha, scale of 0-100, 0 no activity, 100 total control, about two or four weeks after application
Protocol: as §1

[17] = system: Foxtail, (green) (Setaria viridis); test: Herbicidal post-emergence test, Foxtail (green); assay type: in vivo; conditions: 1200 g/ha, scale of 0-100, 0 no activity, 100 total control, about two or four weeks after application
Protocol: as §1

[18] = system: Velvetleaf (Abutilon theophrasti); test: Herbicidal post-emergence test, Velvetleaf; assay type: in vivo; conditions: 1200 g/ha, scale of 0-100, 0 no activity, 100 total control, about two or four weeks after application
Protocol: as §1

melting point [°C] | Compound | Herbicidal Activity NUT (pre-emergence) [1] | Herbicidal Activity BID (post-emergence) [2] | Herbicidal Activity BYG (pre-emergence) [3] | Herbicidal Activity CRB (post-emergence) [4] | Herbicidal Activity BID (pre-emergence) [5] | Herbicidal Activity NS (pre-emergence) [6] | Herbicidal Activity RYE (pre-emergence) [7] | Herbicidal Activity FOX (pre-emergence) [8] | Herbicidal Activity NS (post-emergence) [9] | Herbicidal Activity RYE (post-emergence) [10] | Herbicidal Activity CRB (pre-emergence) [11] | Herbicidal Activity NUT (post-emergence) [12] | Herbicidal Activity SMT (post-emergence) [13] | Herbicidal Activity SMT (pre-emergence) [14] | Herbicidal Activity BYG (post-emergence) [15] | Herbicidal Activity VEL (pre-emergence) [16] | Herbicidal Activity FOX (post-emergence) [17] | Herbicidal Activity VEL (post-emergence) [18]
90 to 91 | COCC1(N2C(=O)NC(=O)C2=O)C=CC=C(OC2CC(F)CC2Cl)C1 (centres unmarked) [Compound 5, 1-methoxymethyl-3-(2-fluoro-4-chloro-5-cyclopentyloxy)phenyl-2,4,5-imidazolidinetrione] | – | – | – | – | – | – | – | – | – | – | – | – | – | – | – | – | – | –
130 to 140 | O=C1NC(=O)N(C2(OC3CC(F)CC3Cl)C=CC=CC2)C1=O (centres unmarked) [Compound 2, 1-(2-fluoro-4-chloro-5-cyclopentyloxy)phenyl-2,4,5-imidazolidinetrione] | – | – | – | – | – | – | – | – | – | – | – | – | – | – | – | – | – | –
– | C#CCN1C(=O)COc2cc(F)c(N3C(=O)C(=O)N(CCC)C3=S)cc21 [Compound 25] | 80 | 100/100 | 100 | 30 | 100/100 | 100/100 | 85 | 100 | 100/100 | 0 | 100 | 40 | 100/100 | 100/100 | 30 | 100/100 | 60 | 100/100
– | CCOC(=O)COc1cc(N2C(=O)C(=O)N(C)C2=O)c(F)cc1Cl [Compound 17] | 0/0 | 0/0 | 0/0 | 0/0 | 0/0 | 30 | 30 | 0/0 | 0 | 0 | 0/0 | 0/0 | 0 | 30 | 0/0 | 0/0 | 0/0 | 0/0
– | CCCCN1C(=O)C(=O)N(c2cc(OC3CCCC3)c(Cl)cc2F)C1=O [Compound 10] | 0 | 60 | 0 | 20 | 0 | 0 | 0 | 0 | 100 | 30 | 0 | 30 | 30 | 0 | 40 | 0 | 80 | 100
– | C#CCOc1cc(N2C(=O)C(=O)N(CCCC)C2=O)c(F)cc1Cl [Compound 14] | 0/0 | 95 | 0 | 0/0 | 0 | 0 | 0/0 | 0 | 100 | 0/0 | 0/0 | 0/0 | 60 | 0 | 30 | 0 | 40 | 100
